For 17 molecules, AC50, IC50 and EC50 results are on record in ChEMBL document CHEMBL1201862, “PubChem BioAssay data set” (2004).

Structures are written as SMILES. Activity calls are given as the source filed them.

For assay [1], the target named is Heat shock protein HSP 90-alpha (Homo sapiens, UniProt P07900). In kind it is functional, organism-based.
In assay [2] the target is T1, Sentrin-specific protease 8 (Homo sapiens, UniProt Q96LD8).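 Further: luminescence read-out of SENP8 inhibition, dose-response confirmation following an ultra-high-throughput screen.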
T1 sequence (Q96LD8 whole entry): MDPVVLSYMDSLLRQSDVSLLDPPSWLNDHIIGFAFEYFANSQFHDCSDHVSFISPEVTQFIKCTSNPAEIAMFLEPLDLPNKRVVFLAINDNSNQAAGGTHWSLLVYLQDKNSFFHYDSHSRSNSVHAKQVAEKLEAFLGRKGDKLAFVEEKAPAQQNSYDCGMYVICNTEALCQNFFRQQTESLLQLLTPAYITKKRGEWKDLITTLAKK
In kind it is functional.

Another assay deals with T2, Caspase-3 (Homo sapiens, UniProt P42574).
T2 sequence (P42574 whole entry): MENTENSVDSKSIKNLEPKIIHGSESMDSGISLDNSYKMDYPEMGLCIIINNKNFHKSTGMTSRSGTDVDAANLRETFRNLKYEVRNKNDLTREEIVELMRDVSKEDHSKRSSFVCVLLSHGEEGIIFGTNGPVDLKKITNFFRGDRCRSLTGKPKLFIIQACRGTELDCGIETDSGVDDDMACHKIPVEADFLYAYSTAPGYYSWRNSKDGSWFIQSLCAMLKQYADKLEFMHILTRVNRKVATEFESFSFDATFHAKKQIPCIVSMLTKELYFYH
In kind it is functional.

Assay [3] has as its target T3, Sentrin-specific protease 6 (Homo sapiens, UniProt Q9GZR1).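 Further: Luminescence-based dose-response confirmatory assay of SENP6 inhibition, following up an ultra-high-throughput screen.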
T3 sequence (Q9GZR1 whole entry): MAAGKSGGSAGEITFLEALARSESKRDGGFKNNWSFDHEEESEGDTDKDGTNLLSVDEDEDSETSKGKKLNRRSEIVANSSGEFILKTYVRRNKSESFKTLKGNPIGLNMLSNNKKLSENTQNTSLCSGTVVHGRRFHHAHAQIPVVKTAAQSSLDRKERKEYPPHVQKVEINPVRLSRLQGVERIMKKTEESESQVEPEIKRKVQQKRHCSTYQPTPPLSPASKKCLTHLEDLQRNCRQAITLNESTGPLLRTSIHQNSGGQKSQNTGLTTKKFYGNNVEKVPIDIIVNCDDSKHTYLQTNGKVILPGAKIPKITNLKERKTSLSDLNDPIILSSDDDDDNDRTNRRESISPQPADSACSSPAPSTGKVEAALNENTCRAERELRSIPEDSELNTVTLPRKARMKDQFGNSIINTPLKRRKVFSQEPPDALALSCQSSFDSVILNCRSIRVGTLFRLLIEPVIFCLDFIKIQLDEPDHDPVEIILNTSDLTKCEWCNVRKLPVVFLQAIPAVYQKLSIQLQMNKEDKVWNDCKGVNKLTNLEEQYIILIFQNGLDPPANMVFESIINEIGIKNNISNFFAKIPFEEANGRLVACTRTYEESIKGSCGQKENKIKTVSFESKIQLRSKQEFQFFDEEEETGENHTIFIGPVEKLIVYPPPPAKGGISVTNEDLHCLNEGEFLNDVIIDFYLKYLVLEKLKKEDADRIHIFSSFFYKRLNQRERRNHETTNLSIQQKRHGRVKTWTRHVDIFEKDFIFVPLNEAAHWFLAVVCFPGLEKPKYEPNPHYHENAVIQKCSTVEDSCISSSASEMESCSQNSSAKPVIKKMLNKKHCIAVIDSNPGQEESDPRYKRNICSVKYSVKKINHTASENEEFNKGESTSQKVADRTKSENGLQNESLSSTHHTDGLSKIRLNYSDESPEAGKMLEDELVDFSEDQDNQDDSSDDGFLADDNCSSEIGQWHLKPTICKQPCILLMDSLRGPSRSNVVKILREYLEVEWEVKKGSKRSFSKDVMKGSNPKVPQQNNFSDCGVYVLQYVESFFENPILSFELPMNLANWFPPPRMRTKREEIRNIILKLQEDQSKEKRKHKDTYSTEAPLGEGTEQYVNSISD
In kind it is functional.

Assay [4] concerns the target T4, Sentrin-specific protease 7 (Homo sapiens, UniProt Q9BQF6).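 Further: Luminescence-based dose-response confirmation of ultra-high-throughput screening hits, measuring inhibition of SENP7.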
T4 sequence (Q9BQF6 whole entry): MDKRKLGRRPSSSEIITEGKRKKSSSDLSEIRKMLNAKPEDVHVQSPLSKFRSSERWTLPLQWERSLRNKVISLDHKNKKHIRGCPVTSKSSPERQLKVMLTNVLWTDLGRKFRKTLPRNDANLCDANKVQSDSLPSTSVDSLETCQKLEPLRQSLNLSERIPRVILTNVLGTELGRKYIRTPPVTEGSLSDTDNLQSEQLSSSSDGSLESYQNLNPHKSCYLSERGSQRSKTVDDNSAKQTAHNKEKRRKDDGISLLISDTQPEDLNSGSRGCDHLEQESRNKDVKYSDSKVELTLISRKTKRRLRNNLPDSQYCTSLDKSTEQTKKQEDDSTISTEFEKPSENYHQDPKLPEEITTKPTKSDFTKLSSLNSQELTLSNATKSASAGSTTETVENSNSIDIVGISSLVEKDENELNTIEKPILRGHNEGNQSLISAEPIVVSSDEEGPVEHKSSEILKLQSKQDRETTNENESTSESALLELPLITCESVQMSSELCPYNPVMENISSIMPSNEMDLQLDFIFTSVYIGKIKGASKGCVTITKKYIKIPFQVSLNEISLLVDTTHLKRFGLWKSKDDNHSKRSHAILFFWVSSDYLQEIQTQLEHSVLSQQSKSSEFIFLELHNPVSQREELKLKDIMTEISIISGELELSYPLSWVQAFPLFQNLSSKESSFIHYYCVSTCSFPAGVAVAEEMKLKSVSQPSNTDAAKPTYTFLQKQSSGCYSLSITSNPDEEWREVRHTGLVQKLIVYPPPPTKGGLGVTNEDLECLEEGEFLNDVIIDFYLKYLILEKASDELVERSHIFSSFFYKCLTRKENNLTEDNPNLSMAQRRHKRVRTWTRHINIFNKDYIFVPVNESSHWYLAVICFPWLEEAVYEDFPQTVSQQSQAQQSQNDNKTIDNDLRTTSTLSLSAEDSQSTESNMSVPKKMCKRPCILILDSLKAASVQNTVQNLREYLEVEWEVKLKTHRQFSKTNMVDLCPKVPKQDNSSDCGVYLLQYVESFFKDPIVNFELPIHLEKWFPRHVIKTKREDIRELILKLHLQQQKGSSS
In kind it is functional.

The target in assay [5] is T5, Oxysterols receptor LXR-beta (Homo sapiens, UniProt P55055).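 Further: agonist activity at LXR measured by a cell-based luminescence readout across a dose range, run as a counterscreen for daf-12 agonists; HEK293 cells with Gal4-LXR fusion and GAL4-driven luciferase reporter; potency for activation of Gal4-LXR reporter so compounds are agonists.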
T5 sequence (P55055 whole entry): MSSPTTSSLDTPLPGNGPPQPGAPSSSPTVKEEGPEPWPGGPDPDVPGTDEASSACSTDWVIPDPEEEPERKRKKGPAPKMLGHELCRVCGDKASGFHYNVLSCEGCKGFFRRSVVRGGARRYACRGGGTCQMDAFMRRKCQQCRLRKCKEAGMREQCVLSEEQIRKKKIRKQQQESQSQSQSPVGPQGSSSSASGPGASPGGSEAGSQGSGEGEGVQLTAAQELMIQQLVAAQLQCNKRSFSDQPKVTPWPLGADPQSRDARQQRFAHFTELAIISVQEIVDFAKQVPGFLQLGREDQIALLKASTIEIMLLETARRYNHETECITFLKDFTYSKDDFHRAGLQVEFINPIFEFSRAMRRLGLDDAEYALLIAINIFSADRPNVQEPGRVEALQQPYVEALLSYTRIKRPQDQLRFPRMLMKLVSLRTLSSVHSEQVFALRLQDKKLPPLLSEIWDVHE
In kind it is functional, cell-based.

Assay [6] is described as follows: HIV-1 AD8 envelope cell-cell fusion blockers – cherry-pick, dose response (AID 652062).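 Further: luciferase signal from cell-cell fusion driven by HIV-1 clade B AD8 Env; potency is for inhibitors of fusion seen as a drop in luminescence.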 In kind it is functional, cell-based.
Assay [7] can be described thus: off-target signal loss in HeLa-CEM21 co-culture – HeLa F-luc CTL cells, cherry-picked, counter-screen for HIV-1 Env fusion inhibitor project, dose response (AID 652040).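 Further: potency for signal decrease marking cytotoxic or nonspecific inhibition.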 In kind it is functional, cell-based. A general note: The purpose of a counterscreen is to sort out artefacts and off-target activity.
The nature of assay [8]: blockers of HIV-1 envelope-mediated cell-cell fusion – cherry-pick, dose response (AID 652057). In kind it is functional, cell-based.
Assay [9] is described as follows: blockers of HIV-1 ZM109 envelope-driven cell-cell fusion – HeLa effector, CEM target cells, luciferase, cherry-pick, dose response (AID 652058).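 Further: luciferase signal from HIV-1 Env mediated cell-cell fusion of effector and target cells.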 In kind it is functional, cell-based.
Assay [10] concerns the target T6, Heat shock factor protein 1 (Mus musculus, UniProt P38532).
T6 sequence (P38532 whole entry): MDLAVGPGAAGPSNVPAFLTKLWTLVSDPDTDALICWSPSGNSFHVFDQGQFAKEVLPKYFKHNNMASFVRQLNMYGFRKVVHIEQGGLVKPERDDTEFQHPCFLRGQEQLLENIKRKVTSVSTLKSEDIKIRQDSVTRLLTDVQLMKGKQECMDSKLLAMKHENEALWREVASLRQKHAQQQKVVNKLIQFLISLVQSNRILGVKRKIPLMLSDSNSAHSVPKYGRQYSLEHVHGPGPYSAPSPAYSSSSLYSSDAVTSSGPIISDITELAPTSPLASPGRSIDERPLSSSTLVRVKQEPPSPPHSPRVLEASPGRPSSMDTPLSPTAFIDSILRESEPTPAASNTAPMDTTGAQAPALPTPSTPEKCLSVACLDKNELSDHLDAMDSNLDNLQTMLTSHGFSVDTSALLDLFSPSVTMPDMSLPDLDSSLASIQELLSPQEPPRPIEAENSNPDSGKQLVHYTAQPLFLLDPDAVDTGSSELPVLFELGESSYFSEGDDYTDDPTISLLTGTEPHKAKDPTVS
The assay can be described thus: enhancement of HSF1-driven luciferase signal – cell-based, NIH3T3, luminescence, dose retest, confirmation (AID 435004).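 Further: stress induced by proteasome inhibitor MG132 added 30 min after compound; luciferase reporter driven by HSF1 response element in NIH3T3 cells; actives raise luminescence as potentiators of the MG132 stress response.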 In kind it is functional.

Assay [11] can be described thus: growth inhibition of PfATP4-mutant resistant parasites – NITD609-resistant line, SYBR Green, dry powder, dose response (AID 1159571).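 Further: parasites synchronized at ring stage by sorbitol before testing.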 In kind it is functional, cell-based.
A short description of assay [12]: Dd2 malaria parasite growth inhibition potency – SYBR Green, dry powder samples, dose response (AID 1159566).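 Further: potency for growth inhibition with lower SYBR green DNA signal.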 In kind it is functional, cell-based.
Assay [13] in a line: toxicity to human HepG2 hepatoma cells – cell-based, plate reader, dry powder samples, cytotoxicity control, dose response (AID 1159569).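 Further: inhibitor potency with signal falling toward the positive control level.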 In kind it is functional.
Assay [14] in a line: growth inhibition of yeast DHODH-expressing 3D7 parasites – SYBR Green, dry powder samples, dose response (AID 1159570).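 Further: parasite growth measured after 72 hours of compound exposure.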 In kind it is functional, cell-based.

Usually AC50 stands for the concentration at which the activity in the assay is half-maximal. On to `Cc1cc(C)c(S(=O)(=O)N2CCC(C(=O)NCc3ccc(Cl)cc3Cl)CC2)c(C)c1`, for which the AC50 in assay [1] is < 0.195 µM (active).
As usually defined, the IC50 is the concentration that gives 50% inhibition. On to `Cc1ccc(-c2noc(CSc3ccccc3)n2)cc1`, for which the IC50 in [2] was 13.7 µM (active); on Caspase-3, 25.5 µM (active); in assay [3], 36.4 µM (active); in assay [4], 6.8 µM (active).
For `CNC(=O)c1ccsc1NC(=O)c1ccc2c(c1)CCCC2`, the IC50 in [2] is 17.9 µM (active); at Caspase-3, 28.4 µM (active); in [3] it was 8.31 µM (active); in [4], 5.37 µM (active).
As usually defined, the EC50 is the concentration giving half of the maximal effect. As for `CCOC(=O)c1c(C)oc2c1cc(O)c1ccccc12`, the EC50 in assay [5] was > 67.5 µM (inactive).
As to `Cc1cc(C)c(O)c(-c2cc(C(=O)Nc3cccnc3)[nH]n2)c1`, the IC50 in assay [2] is > 100 µM (inactive); at Caspase-3, 31.4 µM (active); in assay [3], > 100 µM (inactive); in [4] it was 4.68 µM (active).
Take `C[C@H]1CNC(=O)c2c(C(=O)N3CCN(c4ccccc4)CC3)ncn21`: the concentration at half-maximal activity (AC50) in [6] is 7.04 µM (active); in assay [7] it was 9.62 µM (active); in assay [8], 4.6 µM (active); in assay [9] it was 3.25 µM (active).
Take `Cc1ccc(OCc2nc(-c3cccs3)no2)c([N+](=O)[O-])c1`: the half-inhibitory concentration (IC50) in [2] is 10.2 µM (active); at Caspase-3 it was 21.4 µM (active); in [3], 11.9 µM (active); in [4], 5.51 µM (active).
For the molecule `Cc1ccc(CN2CCN(CC(C)C)C(CCO)C2)s1` (stereo unspecified), the results for the EC50 in [10] and in assay [5] were 98.2 µM (active) and > 67.6 µM (inactive), respectively.
`O=C(NNCc1ccccc1)c1ccccn1`: in assay [5], the EC50 is > 67.6 µM (inactive).
Regarding `c1cncc(-c2noc(-c3ccc4ccccc4c3)n2)c1`, the EC50 in assay [5] is > 67.5 µM (inactive).
In the case of `CCCC#Cc1ccc2c(c1)O[C@@H](CN(C)C(=O)C1CCCCC1)[C@H](C)CN([C@H](C)CO)S2(=O)=O`, the half-maximal activity concentration (AC50) is 21.7 µM (active) in [8] and 13.3 µM (active) in assay [9].
As for `C#CCNC(=O)C[C@H]1C[C@@]2(C(=O)OC)C(=C[C@H](C(C)C)O[C@@H]2C2CC2)N(CCCCCCCC)C1=O`, the EC50 in assay [5] is > 67.5 µM (inactive).
Consider `CCCCSc1ncnc2c1ncn2C1CCCCO1` (stereo unspecified), for which the EC50 in assay [5] is > 67.4 µM (inactive).
With `COc1ccc(-n2nc3cc(N)c(Br)cc3n2)cc1`, the IC50 in [2] is 11 µM (active); at Caspase-3, 13.3 µM (active); in [3], 8.1 µM (active); in assay [4], 5.03 µM (active).
On to `CC(=O)c1sc(Nc2nc3ccc(F)cc3s2)nc1C`, for which the IC50 was 16 µM (active) in assay [2], 18.8 µM (active) at Caspase-3, 11.2 µM (active) in assay [3] and 5.6 µM (active) in [4].
In the case of `COc1ccc(/C=C2/CCc3ccccc3C2=O)cc1OC`, the half-inhibitory concentration (IC50) was 17 µM (active) in assay [2], 32.2 µM (active) at Caspase-3, 18 µM (active) in assay [3] and 8.88 µM (active) in [4].
Consider `COc1cccc(NC(=O)N(C)C[C@@H]2Oc3cc(C#Cc4ccccc4)ccc3S(=O)(=O)N([C@@H](C)CO)C[C@@H]2C)c1`, for which the AC50 in assay [11] was 1.35 µM (active); in assay [12], 1.33 µM (active); in assay [13], > 100 µM (inactive); in [14] it was 1.14 µM (active).
